In the NIST ThermoML archive (doi:10.1021/acs.jced.6b00350):
Where “and” joins values, the source holds several entries; their conditions need not be identical. Equal values may be shown once. Numbers after ± are expanded uncertainties.

Conditions: Liquid, Hot wire method

FC(F)CC(F)(F)F [1,1,1,3,3-pentafluoropropane]
Conditions | thermal conductivity
242.09 K, 15292 kPa | 0.1107 ± 0.0014 W/m/K
242.09 K, 33385 kPa | 0.1154 ± 0.0015 W/m/K
242.09 K, 46702 kPa | 0.1187 ± 0.0015 W/m/K
242.09 K, 46703 kPa | 0.1195 ± 0.0015 W/m/K
242.1 K, 15296 kPa | 0.1107 ± 0.0014 W/m/K
242.1 K, 21026 kPa | 0.1124 ± 0.0014 W/m/K
242.1 K, 21045 kPa | 0.1126 ± 0.0014 W/m/K
242.1 K, 33384 kPa | 0.1155 ± 0.0015 W/m/K
242.1 K, 53712 kPa | 0.1203 ± 0.0015 W/m/K
242.11 K, 9885 kPa | 0.1091 ± 0.0014 W/m/K
242.11 K, 9889 kPa | 0.1086 ± 0.0014 W/m/K
242.11 K, 26987 kPa | 0.1139 ± 0.0014 W/m/K
242.11 K, 39778 kPa | 0.1171 ± 0.0015 W/m/K
242.12 K, 26965 kPa | 0.1139 ± 0.0014 W/m/K
242.12 K, 39775 kPa | 0.1171 ± 0.0015 W/m/K
242.12 K, 53701 kPa | 0.1203 ± 0.0015 W/m/K
242.12 K, 61286 kPa | 0.1221 ± 0.0015 W/m/K
242.13 K, 61278 kPa | 0.1219 ± 0.0015 W/m/K
242.14 K, 68636 kPa | 0.1235 ± 0.0016 W/m/K
242.14 K, 68676 kPa | 0.1235 ± 0.0016 W/m/K
242.19 K, 312 kPa | 0.1058 ± 0.0014 W/m/K and 0.1064 ± 0.0014 W/m/K
242.19 K, 4998 kPa | 0.1075 ± 0.0014 W/m/K
242.19 K, 5009 kPa | 0.1078 ± 0.0014 W/m/K
242.51 K, 46692 kPa | 0.1189 ± 0.0015 W/m/K
242.52 K, 46700 kPa | 0.1191 ± 0.0015 W/m/K
242.54 K, 33390 kPa | 0.1155 ± 0.0015 W/m/K
242.54 K, 33403 kPa | 0.1154 ± 0.0015 W/m/K
242.54 K, 53700 kPa | 0.1204 ± 0.0015 W/m/K
242.54 K, 53711 kPa | 0.1205 ± 0.0015 W/m/K
242.54 K, 61277 kPa | 0.1221 ± 0.0015 W/m/K
242.55 K, 15291 kPa | 0.1107 ± 0.0014 W/m/K
242.55 K, 21035 kPa | 0.1123 ± 0.0014 W/m/K
242.55 K, 21038 kPa | 0.1121 ± 0.0014 W/m/K
242.55 K, 39775 kPa | 0.117 ± 0.0015 W/m/K
242.55 K, 39776 kPa | 0.1173 ± 0.0015 W/m/K
242.55 K, 61245 kPa | 0.122 ± 0.0015 W/m/K
242.55 K, 68688 kPa | 0.1238 ± 0.0016 W/m/K
242.56 K, 26980 kPa | 0.1136 ± 0.0014 W/m/K
242.56 K, 26983 kPa | 0.114 ± 0.0014 W/m/K
242.56 K, 68673 kPa | 0.1236 ± 0.0016 W/m/K
242.57 K, 9883 kPa | 0.109 ± 0.0014 W/m/K
242.58 K, 9889 kPa | 0.1092 ± 0.0014 W/m/K
242.65 K, 5012 kPa | 0.1074 ± 0.0014 W/m/K
242.66 K, 307 kPa | 0.1056 ± 0.0014 W/m/K
242.66 K, 5012 kPa | 0.1074 ± 0.0014 W/m/K
242.67 K, 311 kPa | 0.1059 ± 0.0014 W/m/K
242.99 K, 46699 kPa | 0.1186 ± 0.0015 W/m/K
242.99 K, 46703 kPa | 0.1187 ± 0.0015 W/m/K
242.99 K, 53703 kPa | 0.1204 ± 0.0015 W/m/K
242.99 K, 53705 kPa | 0.1205 ± 0.0015 W/m/K
243 K, 61280 kPa | 0.122 ± 0.0015 W/m/K
243.01 K, 33387 kPa | 0.1153 ± 0.0015 W/m/K
243.01 K, 61272 kPa | 0.122 ± 0.0015 W/m/K
243.01 K, 68624 kPa | 0.1235 ± 0.0016 W/m/K
243.01 K, 68665 kPa | 0.1235 ± 0.0016 W/m/K
243.02 K, 33391 kPa | 0.1157 ± 0.0015 W/m/K
243.02 K, 39783 kPa | 0.117 ± 0.0015 W/m/K
243.03 K, 39791 kPa | 0.1173 ± 0.0015 W/m/K
243.04 K, 15285 kPa | 0.1108 ± 0.0014 W/m/K
243.04 K, 21046 kPa | 0.1119 ± 0.0014 W/m/K
243.04 K, 26979 kPa | 0.1139 ± 0.0014 W/m/K
243.05 K, 21037 kPa | 0.1122 ± 0.0014 W/m/K
243.05 K, 26975 kPa | 0.1137 ± 0.0014 W/m/K
243.06 K, 15300 kPa | 0.1105 ± 0.0014 W/m/K
243.07 K, 9881 kPa | 0.1091 ± 0.0014 W/m/K
243.07 K, 9885 kPa | 0.1094 ± 0.0014 W/m/K
243.16 K, 5024 kPa | 0.1074 ± 0.0014 W/m/K
243.17 K, 305 kPa | 0.1059 ± 0.0014 W/m/K
243.17 K, 5015 kPa | 0.1075 ± 0.0014 W/m/K
243.18 K, 306 kPa | 0.1061 ± 0.0014 W/m/K
261.13 K, 36952 kPa | 0.1131 ± 0.0014 W/m/K
261.13 K, 36968 kPa | 0.1135 ± 0.0014 W/m/K
261.17 K, 4289 kPa | 0.1031 ± 0.0013 W/m/K
261.17 K, 4298 kPa | 0.1027 ± 0.0013 W/m/K
261.17 K, 8849 kPa | 0.103 ± 0.0013 W/m/K
261.19 K, 14126 kPa | 0.1062 ± 0.0014 W/m/K
261.2 K, 14118 kPa | 0.106 ± 0.0014 W/m/K
261.21 K, 254 kPa | 0.1005 ± 0.0013 W/m/K
261.21 K, 260 kPa | 0.1005 ± 0.0013 W/m/K
261.21 K, 25237 kPa | 0.1087 ± 0.0014 W/m/K
261.22 K, 25223 kPa | 0.1081 ± 0.0014 W/m/K
261.23 K, 31202 kPa | 0.1113 ± 0.0014 W/m/K
261.23 K, 31204 kPa | 0.1116 ± 0.0014 W/m/K
261.52 K, 43978 kPa | 0.1147 ± 0.0015 W/m/K
261.55 K, 51260 kPa | 0.1154 ± 0.0015 W/m/K
261.55 K, 51262 kPa | 0.1153 ± 0.0015 W/m/K
261.56 K, 8838 kPa | 0.1026 ± 0.0013 W/m/K
261.57 K, 8847 kPa | 0.1029 ± 0.0013 W/m/K
261.57 K, 58812 kPa | 0.1174 ± 0.0015 W/m/K
261.58 K, 14132 kPa | 0.1051 ± 0.0013 W/m/K
261.58 K, 58797 kPa | 0.1178 ± 0.0015 W/m/K
261.6 K, 25212 kPa | 0.1084 ± 0.0014 W/m/K
261.6 K, 31216 kPa | 0.1112 ± 0.0014 W/m/K
261.61 K, 256 kPa | 0.09949 ± 0.0013 W/m/K
261.61 K, 263 kPa | 0.09978 ± 0.0013 W/m/K
261.61 K, 19564 kPa | 0.1066 ± 0.0014 W/m/K
261.61 K, 68826 kPa | 0.1202 ± 0.0015 W/m/K
261.61 K, 68837 kPa | 0.1206 ± 0.0015 W/m/K
261.62 K, 19569 kPa | 0.107 ± 0.0014 W/m/K
261.63 K, 68933 kPa | 0.1198 ± 0.0015 W/m/K
261.64 K, 68930 kPa | 0.1197 ± 0.0015 W/m/K
261.9 K, 36964 kPa | 0.1125 ± 0.0014 W/m/K
261.92 K, 43962 kPa | 0.1136 ± 0.0014 W/m/K
261.93 K, 43919 kPa | 0.1146 ± 0.0015 W/m/K
261.94 K, 51257 kPa | 0.1157 ± 0.0015 W/m/K
261.95 K, 51262 kPa | 0.1157 ± 0.0015 W/m/K
261.96 K, 58819 kPa | 0.1174 ± 0.0015 W/m/K
261.96 K, 58829 kPa | 0.1179 ± 0.0015 W/m/K
261.99 K, 68802 kPa | 0.1199 ± 0.0015 W/m/K
261.99 K, 68824 kPa | 0.1198 ± 0.0015 W/m/K
262 K, 8855 kPa | 0.1037 ± 0.0013 W/m/K
262 K, 8858 kPa | 0.1032 ± 0.0013 W/m/K
262 K, 14134 kPa | 0.105 ± 0.0013 W/m/K
262.01 K, 4294 kPa | 0.1017 ± 0.0013 W/m/K
262.01 K, 4301 kPa | 0.1014 ± 0.0013 W/m/K
262.01 K, 14121 kPa | 0.1049 ± 0.0013 W/m/K
262.01 K, 25254 kPa | 0.1088 ± 0.0014 W/m/K
262.01 K, 25264 kPa | 0.1087 ± 0.0014 W/m/K
262.01 K, 31199 kPa | 0.1102 ± 0.0014 W/m/K and 0.1104 ± 0.0014 W/m/K
262.01 K, 68921 kPa | 0.1199 ± 0.0015 W/m/K
262.02 K, 68914 kPa | 0.1199 ± 0.0015 W/m/K
262.04 K, 19538 kPa | 0.1069 ± 0.0014 W/m/K
262.04 K, 19563 kPa | 0.1063 ± 0.0014 W/m/K
262.06 K, 260 kPa | 0.1002 ± 0.0013 W/m/K
262.06 K, 263 kPa | 0.1001 ± 0.0013 W/m/K
262.33 K, 36929 kPa | 0.1119 ± 0.0014 W/m/K
262.35 K, 36937 kPa | 0.1119 ± 0.0014 W/m/K
262.36 K, 43961 kPa | 0.1135 ± 0.0014 W/m/K
262.36 K, 43965 kPa | 0.1138 ± 0.0014 W/m/K
262.37 K, 51242 kPa | 0.1157 ± 0.0015 W/m/K
262.38 K, 51253 kPa | 0.1155 ± 0.0015 W/m/K
262.39 K, 58814 kPa | 0.1181 ± 0.0015 W/m/K
262.39 K, 58816 kPa | 0.1176 ± 0.0015 W/m/K
262.4 K, 68835 kPa | 0.1199 ± 0.0015 W/m/K
262.41 K, 68836 kPa | 0.1198 ± 0.0015 W/m/K
262.43 K, 68875 kPa | 0.1199 ± 0.0015 W/m/K
262.43 K, 68907 kPa | 0.1196 ± 0.0015 W/m/K
262.46 K, 8826 kPa | 0.1033 ± 0.0013 W/m/K
262.46 K, 25272 kPa | 0.1083 ± 0.0014 W/m/K
